{"source": "patent US20060127980A1", "about": "“Human excitatory amino acid transporter-2 gene promoter and uses thereof” (priority 2003, published 2006)", "type_in_all_cases": "cell-based, human", "key": {"hEAAT2 mRNA": {"test_system": "hEAAT2 mRNA", "test": "Northern blot of hEAAT2 mRNA in PHFA treated with modulators", "details": "7-day treatment, EGF 30 ng/ml, TGF-α 30 ng/ml, dbcAMP 200 μM, bromo-cAMP 100 μM, TNF-α 200 U/ml", "experimental": "FIG. 4A-D. Effect of modulators of hEAAT2 activity on hEAAT2 expression and hEAAT2 promoter activity in PHFA. A. A Northern analysis of hEAAT2 and GAPDH mRNA expression following treatment with EGF (30 ng/ml), TGF-α (30 ng/ml), dbcAMP (200 μM, bromo-cAMP (100 μM) or TNF-α (200 U/ml) for 7 days. B. Nuclear run-on assays determining the relative rates of hEAAT2 and GAPDH transcription as a function of 7-day treatment with the same concentrations of the indicated agents. C. A time course of mRNA expression of hEAAT2 and GAPDH following treatment with EGF, bromo-cAMP or TNF-α (same concentrations as in A.). D. Fold luciferase activity in PHFA transfected with flhEAAT2Prom-luc or various deletion mutants of hEAAT2 and non-transfected controls treated with the indicated compounds for four days.\n(§1) Northern and Western Blotting Assays. Total cellular RNA was isolated by the guanidinium/phenol extraction method and Northern blotting was performed as described (Huang et al., 2001, Oncogene 20(48):7051-7063; Su et al., 2000, Oncogene 19(30):3411-3421; Su et al., 2001, Nucleic Acids Res 29(8):1661-1671). Western blotting assays were performed as described (Su et al., 1998, Proc Natl Acad Sci USA 95(24):14400-14405; Su et al., 2002, Oncogene 21(22):3592-602).\nPositive and Negative Regulation of hEAAT2 Transcription, Promoter Activity and mRNA Levels in PHFA. Several enhancers of GLT-1 expression in rat astrocytes have been identified, including epidermal growth factor (EGF), transforming growth factor-α (TGF-α) and dibutyryl cyclic AMP (dbcAMP) (Swanson et al., 1997, J Neurosci 17(3):932-940; Zelenaia et al., 2000, Mol Pharmacol 57(4):667-678). Based on these considerations, experiments were performed to determine if these agents similarly modify human hEAAT2 expression in PHFA. Consistent with previous observations in rat astrocytes, 7-day treatment with EGF, TGF-α, and two analogs of cAMP, dbcAMP and bromo-cAMP, stimulated hEAAT2 mRNA expression in PHFA, whereas TNF-α decreased expression (FIG. 4B). […] In contrast, TNF-α decreased expression by 48 h (FIG. 4C)."}, "hEAAT2 protein": {"test_system": "hEAAT2 protein", "test": "Western blot of EAAT2 protein in PHFA", "experimental": "FIG. 5A-E. Effect of pharmacological inhibitors on hEAAT2 promoter activity, and mRNA and protein expression in PHFA following various treatment protocols. A. hEAAT2 promoter activity in PHFA, either untreated (−) or treated with EGF (30 ng/ml), in the absence (−) or presence (+) of KT5720 (5 μM), AG1478 (1 μM), PDTC (100 μM), wortmannin (WRT) (100 nM) or PD98049 (PD) (50 μM). B. hEAAT2 promoter activity in PHFA, either untreated (−) or treated with bromo-cAMP (250 μM) in the absence (−) or presence (+) of KT5720 (5 μM), AG1478 (1 μM), PDTC (100 μM), wortmannin (WRT) (100 nM) or PD98049 (PD) (50 μM). C. hEAAT2 promoter activity in PHFA, either untreated (−) or treated with TNF-α (200 U/ml), in the absence (−) or presence (+) of KT5720 (5 μM), AG1478 (1 μM), PDTC (100 μM), wortmannin (WRT) (100 nM) or PD98049 (PD) (50 μM). D. The effect of the various treatment protocols on hEAAT2 and GAPDH mRNA levels. Upper panel presents relative hEAAT2 RNA expression versus GAPDH expression relative to control untreated or treated samples based on scanning of autoradiograms. Lower panel, actual Northern blots. E. The effect of the various treatment protocols on EAAT2 and ACTIN protein levels. Upper panel presents relative EAAT2 protein expression versus ACTIN expression relative to control untreated or treated samples based on scanning of autoradiograms. Individual experiments were performed 3 times using triplicate samples and S.D. from the mean is presented.\nas §1"}, "hEAAT2 promoter": {"test_system": "hEAAT2 promoter", "test": "hEAAT2 promoter luciferase assay of agents in H4 glioma cells (FIG. 12)", "details": "H4 malignant glioma cells; 10 μM", "experimental": "(§2) FIG. 12. Effect of various agents on hEAAT2 promoter activity in H4 human malignant glioma cells. A: ceftriaxone; B: amoxicillin; C: chloramphenicol; D: thiamphenicol; E: vancomycin; F: glycine; G: glutamate; H: DMSO; I: dibutyryl cAMP. H4 is a rare clone of malignant glioma cells that support hEAAT2 promoter activity. H4 cells were seeded at 5×10^4 cells/35-mm plate. Twenty-four h later cells were untreated (CON) or received the indicated compound at a final concentration of 10 μM. Forty-eight h later the cells were transfected with a FL pGL3/EAAT2 luciferase reporter construct (5 μg) plus a pSVβGalactosidase construct (1 μg) using the calcium phosphate precipitation method (Su et al. 2003, Proc. Natl. Acad. Sci. USA 100:1955-1960). After an additional 48 h, cell lysates were prepared and luciferase activity was determined using the Luciferase Assay System Kit (Promega, E1501) and luminescence determined using a luminometer (Turner Designs, TD20/20) (Su et al. 2003, Proc. Natl. Acad. Sci. USA 100:1955-1960). Data presented are the average of 3 independent plates±S.D. Qualitatively similar results were obtained in 2 additional experiments.\nas §2, with “H4, the third cell line examined,” for “FIG. 12. Effect of various agents on hEAAT2 promoter activity in H4 human malignant glioma cells. A: ceftriaxone; B: amoxicillin; C: chloramphenicol; D: thiamphenicol; E: vancomycin; F: glycine; G: glutamate; H: DMSO; I: dibutyryl cAMP. H4”, “activity. In the studies shown in FIG. 12,” for “activity.”"}}}
{"molecule": "CCCC(=O)Nc1ncnc2c1ncn2[C@@H]1O[C@@H]2COP(=O)(O)O[C@H]2[C@H]1OC(=O)CCC", "note": "[dbcAMP, dibutyryl cyclic AMP]", "values": [{"measurement": "hEAAT2 mRNA expression", "setting": "hEAAT2 mRNA", "value": "stimulated"}, {"measurement": "hEAAT2 protein levels", "setting": "hEAAT2 protein", "value": "upregulated"}, {"measurement": "hEAAT2 promoter activity", "setting": "hEAAT2 promoter", "value": "potent stimulators"}]}
